Values quoted from earlier work in US20170360735A1, “INGESTIBLE EMULSION MATRIX FOR DELIVERY OF CREATINE” (DreamPak, priority 2016, published 2017).
Read-outs that look alike come from different tables or passages of the source.

How the values were obtained:
[1] = ingestion of 20-30 g creatine per day for several days
[2] = oral, estimated

Substance: N-(aminoiminomethyl)-N-methylglycine [creatine]
- increase in human skeletal muscle creatine content [1]: greater than 20%
- creatine dissolved in water (at 70° F.): about 1.4%
- creatine dissolved in water (at 120° F.): about 4.5%
- absorption rate from the gastrointestinal (GI) tract [2]: 1-14%
